In ChEMBL document CHEMBL4507259 (2021):

Key:
[1] = target: Serine/threonine-protein kinase BRSK1 (Homo sapiens) (UniProt Q8TDC3); conditions: Compound concentration 1000.0 nM
[2] = target: T1, Muscarinic acetylcholine receptor M4 (Homo sapiens) (UniProt P08173); assay: M4 (h) CEREP ligand profiling; conditions: filed as antagonist, Compound concentration 10.0 uM
T1 sequence (whole entry): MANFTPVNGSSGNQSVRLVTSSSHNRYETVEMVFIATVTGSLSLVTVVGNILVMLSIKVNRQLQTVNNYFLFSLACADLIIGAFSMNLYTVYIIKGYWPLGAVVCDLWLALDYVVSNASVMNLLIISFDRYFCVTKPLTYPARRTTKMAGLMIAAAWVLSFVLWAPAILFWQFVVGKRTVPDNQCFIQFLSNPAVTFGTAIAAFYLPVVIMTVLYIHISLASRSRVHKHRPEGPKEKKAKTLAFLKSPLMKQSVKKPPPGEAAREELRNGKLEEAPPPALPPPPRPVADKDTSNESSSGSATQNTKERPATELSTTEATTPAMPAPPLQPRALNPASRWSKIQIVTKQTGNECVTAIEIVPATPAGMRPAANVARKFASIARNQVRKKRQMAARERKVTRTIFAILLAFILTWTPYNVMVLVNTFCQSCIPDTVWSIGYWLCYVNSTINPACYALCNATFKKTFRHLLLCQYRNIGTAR

[3] = target: Type-1 angiotensin II receptor (Homo sapiens) (UniProt P30556); assay: AT1 (h) CEREP ligand profiling; conditions: filed as antagonist, Compound concentration 10.0 uM
Sequence of Type-1 angiotensin II receptor (Homo sapiens) (P30556 whole entry): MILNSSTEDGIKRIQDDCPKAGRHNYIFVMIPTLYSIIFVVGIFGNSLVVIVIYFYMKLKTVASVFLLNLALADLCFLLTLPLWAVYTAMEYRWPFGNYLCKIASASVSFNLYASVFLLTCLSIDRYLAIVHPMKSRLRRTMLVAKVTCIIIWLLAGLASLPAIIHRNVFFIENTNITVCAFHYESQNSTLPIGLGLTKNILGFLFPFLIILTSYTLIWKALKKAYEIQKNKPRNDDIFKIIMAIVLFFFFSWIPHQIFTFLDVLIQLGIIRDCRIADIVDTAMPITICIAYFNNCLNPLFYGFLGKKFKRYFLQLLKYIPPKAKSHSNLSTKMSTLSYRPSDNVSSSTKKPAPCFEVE

[4] = target: Dual specificity protein kinase CLK4 (Homo sapiens) (UniProt Q9HAZ1); conditions: Compound concentration 1000.0 nM
[5] = target: Serine/threonine-protein kinase Nek4 (Homo sapiens) (UniProt P51957); conditions: Compound concentration 1000.0 nM
[6] = target: Phosphatidylinositol 4,5-bisphosphate 3-kinase catalytic subunit beta isoform (Homo sapiens) (UniProt P42338); conditions: Compound concentration 1000.0 nM
[7] = tested on: Receptor-type tyrosine-protein kinase FLT3 (Homo sapiens), P36888 [UNDEFINED MUTATION]; conditions: Compound concentration 1000.0 nM
[8] = target: Alpha-1D adrenergic receptor (Homo sapiens) (UniProt P25100); conditions: Compound concentration 10.0 uM
Sequence of Alpha-1D adrenergic receptor (Homo sapiens) (P25100 whole entry): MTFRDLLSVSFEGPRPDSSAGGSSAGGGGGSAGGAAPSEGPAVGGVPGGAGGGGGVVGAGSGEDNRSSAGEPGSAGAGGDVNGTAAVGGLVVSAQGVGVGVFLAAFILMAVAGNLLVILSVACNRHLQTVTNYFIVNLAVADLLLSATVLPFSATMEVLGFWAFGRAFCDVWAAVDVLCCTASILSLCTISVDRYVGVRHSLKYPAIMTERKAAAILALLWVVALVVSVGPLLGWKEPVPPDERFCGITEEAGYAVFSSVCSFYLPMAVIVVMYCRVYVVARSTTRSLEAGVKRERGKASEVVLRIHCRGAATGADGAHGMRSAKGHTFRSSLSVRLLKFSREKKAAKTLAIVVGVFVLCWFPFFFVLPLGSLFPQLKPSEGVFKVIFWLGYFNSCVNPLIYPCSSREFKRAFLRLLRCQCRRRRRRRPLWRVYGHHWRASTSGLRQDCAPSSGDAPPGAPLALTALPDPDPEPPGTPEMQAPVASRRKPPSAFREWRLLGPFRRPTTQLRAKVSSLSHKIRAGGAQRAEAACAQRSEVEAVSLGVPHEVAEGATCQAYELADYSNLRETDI

[9] = target: Aurora kinase C (Homo sapiens) (UniProt Q9UQB9); conditions: Compound concentration 1000.0 nM
Sequence of Aurora kinase C (Homo sapiens) (Q9UQB9 whole entry): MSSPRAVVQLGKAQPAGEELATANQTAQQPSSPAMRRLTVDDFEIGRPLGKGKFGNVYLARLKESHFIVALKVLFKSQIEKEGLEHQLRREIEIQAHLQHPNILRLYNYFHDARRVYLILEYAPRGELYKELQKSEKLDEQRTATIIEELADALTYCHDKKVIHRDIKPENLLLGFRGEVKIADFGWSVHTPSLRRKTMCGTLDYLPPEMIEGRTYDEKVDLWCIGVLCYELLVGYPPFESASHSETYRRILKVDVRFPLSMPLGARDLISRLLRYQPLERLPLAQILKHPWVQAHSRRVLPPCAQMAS

[10] = target: Serine/threonine-protein kinase NLK (Homo sapiens) (UniProt Q9UBE8); conditions: Compound concentration 1000.0 nM
Sequence of Serine/threonine-protein kinase NLK (Homo sapiens) (Q9UBE8 whole entry): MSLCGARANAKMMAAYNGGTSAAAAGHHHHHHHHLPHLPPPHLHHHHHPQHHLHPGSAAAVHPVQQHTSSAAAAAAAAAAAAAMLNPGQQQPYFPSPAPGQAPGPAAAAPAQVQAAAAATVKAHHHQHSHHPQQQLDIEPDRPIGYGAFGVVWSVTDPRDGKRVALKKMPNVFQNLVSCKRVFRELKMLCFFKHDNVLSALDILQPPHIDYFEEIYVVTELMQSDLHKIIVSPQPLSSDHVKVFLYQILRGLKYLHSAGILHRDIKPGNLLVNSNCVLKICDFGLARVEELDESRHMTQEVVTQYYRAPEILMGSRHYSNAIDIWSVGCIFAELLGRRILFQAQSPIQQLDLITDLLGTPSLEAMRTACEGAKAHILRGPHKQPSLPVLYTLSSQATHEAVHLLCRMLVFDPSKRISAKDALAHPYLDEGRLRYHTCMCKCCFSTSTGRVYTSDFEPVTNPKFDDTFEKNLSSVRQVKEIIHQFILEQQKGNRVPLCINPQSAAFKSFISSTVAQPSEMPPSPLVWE

[11] = target: Mitogen-activated protein kinase kinase kinase 7 (Homo sapiens) (UniProt O43318); conditions: Compound concentration 1000.0 nM
Sequence of Mitogen-activated protein kinase kinase kinase 7 (Homo sapiens) (O43318 whole entry): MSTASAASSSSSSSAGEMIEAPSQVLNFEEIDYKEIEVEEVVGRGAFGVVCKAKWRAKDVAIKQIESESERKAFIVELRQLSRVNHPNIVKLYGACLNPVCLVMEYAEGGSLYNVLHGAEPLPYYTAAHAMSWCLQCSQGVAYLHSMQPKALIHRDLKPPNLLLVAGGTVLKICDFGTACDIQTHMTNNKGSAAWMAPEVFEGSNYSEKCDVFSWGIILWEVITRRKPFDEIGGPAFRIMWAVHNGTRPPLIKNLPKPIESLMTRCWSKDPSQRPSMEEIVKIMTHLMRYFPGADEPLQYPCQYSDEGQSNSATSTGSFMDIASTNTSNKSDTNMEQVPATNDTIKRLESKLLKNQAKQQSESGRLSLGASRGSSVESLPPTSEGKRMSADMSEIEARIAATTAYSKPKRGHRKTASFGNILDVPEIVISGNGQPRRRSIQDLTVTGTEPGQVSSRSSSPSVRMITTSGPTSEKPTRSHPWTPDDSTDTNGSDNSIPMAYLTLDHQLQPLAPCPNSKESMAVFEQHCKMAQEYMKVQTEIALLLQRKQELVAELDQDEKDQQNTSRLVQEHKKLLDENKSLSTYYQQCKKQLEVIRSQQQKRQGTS

[12] = target: Substance-P receptor (Homo sapiens) (UniProt P25103); assay: NK1 (h) CEREP ligand profiling; conditions: filed as agonist, Compound concentration 10.0 uM
Sequence of Substance-P receptor (Homo sapiens) (P25103 whole entry): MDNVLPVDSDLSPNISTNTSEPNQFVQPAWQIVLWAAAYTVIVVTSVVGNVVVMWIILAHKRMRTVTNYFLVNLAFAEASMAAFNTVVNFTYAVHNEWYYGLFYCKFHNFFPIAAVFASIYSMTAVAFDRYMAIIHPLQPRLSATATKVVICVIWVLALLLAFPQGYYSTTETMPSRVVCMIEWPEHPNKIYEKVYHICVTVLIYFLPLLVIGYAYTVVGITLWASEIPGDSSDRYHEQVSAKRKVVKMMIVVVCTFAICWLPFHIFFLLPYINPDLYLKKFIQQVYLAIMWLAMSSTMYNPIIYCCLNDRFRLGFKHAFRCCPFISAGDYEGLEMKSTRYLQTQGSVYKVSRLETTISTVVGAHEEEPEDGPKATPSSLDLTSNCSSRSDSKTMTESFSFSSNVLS

[13] = tested on: Tyrosine-protein kinase ABL1 (Homo sapiens), P00519 [F317L]; conditions: Compound concentration 1000.0 nM
[14] = target: Serine/threonine-protein kinase Chk1 (Homo sapiens) (UniProt O14757); conditions: Compound concentration 1000.0 nM
Sequence of Serine/threonine-protein kinase Chk1 (Homo sapiens) (O14757 whole entry): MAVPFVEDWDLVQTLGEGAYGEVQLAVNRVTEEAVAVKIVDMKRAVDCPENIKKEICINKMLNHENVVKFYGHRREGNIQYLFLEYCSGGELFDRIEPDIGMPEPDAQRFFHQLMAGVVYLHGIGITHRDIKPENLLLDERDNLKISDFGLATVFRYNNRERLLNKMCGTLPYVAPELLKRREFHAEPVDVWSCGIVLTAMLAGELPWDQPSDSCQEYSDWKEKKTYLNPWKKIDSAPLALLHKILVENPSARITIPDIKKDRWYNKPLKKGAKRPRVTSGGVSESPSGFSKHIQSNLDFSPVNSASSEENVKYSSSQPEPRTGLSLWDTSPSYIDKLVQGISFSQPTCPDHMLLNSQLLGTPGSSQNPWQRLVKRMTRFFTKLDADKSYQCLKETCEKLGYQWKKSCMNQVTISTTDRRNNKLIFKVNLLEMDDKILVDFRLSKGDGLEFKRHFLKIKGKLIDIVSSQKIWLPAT

[15] = target: Mitogen-activated protein kinase kinase kinase 13 (Homo sapiens) (UniProt O43283); conditions: Compound concentration 1000.0 nM
[16] = tested on: Epidermal growth factor receptor (Homo sapiens), P00533 [UNDEFINED MUTATION]; conditions: Compound concentration 1000.0 nM
[17] = target: Ribosomal protein S6 kinase alpha-1 (Homo sapiens) (UniProt Q15418); conditions: Compound concentration 1000.0 nM
[18] = tested on: Mast/stem cell growth factor receptor Kit (Homo sapiens), P10721 [V559D,V654A]; conditions: Compound concentration 1000.0 nM
[19] = target: Serine/threonine-protein kinase 16 (Homo sapiens) (UniProt O75716); conditions: Compound concentration 1000.0 nM
Sequence of Serine/threonine-protein kinase 16 (Homo sapiens) (O75716 whole entry): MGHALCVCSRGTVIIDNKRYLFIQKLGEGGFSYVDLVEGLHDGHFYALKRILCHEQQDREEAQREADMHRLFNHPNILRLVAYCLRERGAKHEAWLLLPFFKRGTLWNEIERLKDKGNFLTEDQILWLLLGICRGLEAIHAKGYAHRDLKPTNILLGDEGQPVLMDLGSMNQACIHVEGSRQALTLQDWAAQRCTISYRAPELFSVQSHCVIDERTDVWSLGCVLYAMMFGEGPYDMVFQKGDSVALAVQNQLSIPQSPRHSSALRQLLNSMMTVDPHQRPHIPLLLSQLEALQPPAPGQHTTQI

[20] = target: Mitogen-activated protein kinase kinase kinase 2 (Homo sapiens) (UniProt Q9Y2U5); conditions: Compound concentration 1000.0 nM
[21] = target: T2, Alpha-2B adrenergic receptor (Homo sapiens) (UniProt P18089); assay: alpha 2B (h) CEREP ligand profiling; conditions: filed as antagonist, Compound concentration 10.0 uM
T2 sequence (whole entry): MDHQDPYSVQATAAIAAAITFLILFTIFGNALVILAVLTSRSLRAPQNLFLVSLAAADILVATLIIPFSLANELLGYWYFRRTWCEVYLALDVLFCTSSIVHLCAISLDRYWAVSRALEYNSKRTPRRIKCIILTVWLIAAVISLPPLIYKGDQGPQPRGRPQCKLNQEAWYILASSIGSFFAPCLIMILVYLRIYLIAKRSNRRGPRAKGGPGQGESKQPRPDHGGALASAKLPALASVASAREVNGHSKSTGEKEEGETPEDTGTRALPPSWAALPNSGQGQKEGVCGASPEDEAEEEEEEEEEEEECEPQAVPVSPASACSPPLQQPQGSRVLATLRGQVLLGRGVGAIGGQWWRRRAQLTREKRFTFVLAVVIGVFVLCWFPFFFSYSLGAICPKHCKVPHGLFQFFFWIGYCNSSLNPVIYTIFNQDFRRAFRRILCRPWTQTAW

[22] = target: Epidermal growth factor receptor (Homo sapiens) (UniProt P00533); conditions: Compound concentration 1000.0 nM
[23] = target: LIM domain kinase 2 (Homo sapiens) (UniProt P53671); conditions: Compound concentration 1000.0 nM
[24] = target: GABA-A receptor; anion channel (Homo sapiens) (UniProt P14867+P47870+P18507+P28472+P48169+Q99928+Q9UN88+P34903+O00591+O14764+Q8N1C3+P18505+P78334+P47869+P31644+Q16445); assay: Cl- channel (GABA-gated) CEREP ligand profiling; format: protein-complex assay; conditions: filed as antagonist; Compound concentration 10.0 uM
[25] = target: Death-associated protein kinase 1 (Homo sapiens) (UniProt P53355); conditions: Compound concentration 1000.0 nM
Sequence of Death-associated protein kinase 1 (Homo sapiens) (P53355 whole entry, looked up): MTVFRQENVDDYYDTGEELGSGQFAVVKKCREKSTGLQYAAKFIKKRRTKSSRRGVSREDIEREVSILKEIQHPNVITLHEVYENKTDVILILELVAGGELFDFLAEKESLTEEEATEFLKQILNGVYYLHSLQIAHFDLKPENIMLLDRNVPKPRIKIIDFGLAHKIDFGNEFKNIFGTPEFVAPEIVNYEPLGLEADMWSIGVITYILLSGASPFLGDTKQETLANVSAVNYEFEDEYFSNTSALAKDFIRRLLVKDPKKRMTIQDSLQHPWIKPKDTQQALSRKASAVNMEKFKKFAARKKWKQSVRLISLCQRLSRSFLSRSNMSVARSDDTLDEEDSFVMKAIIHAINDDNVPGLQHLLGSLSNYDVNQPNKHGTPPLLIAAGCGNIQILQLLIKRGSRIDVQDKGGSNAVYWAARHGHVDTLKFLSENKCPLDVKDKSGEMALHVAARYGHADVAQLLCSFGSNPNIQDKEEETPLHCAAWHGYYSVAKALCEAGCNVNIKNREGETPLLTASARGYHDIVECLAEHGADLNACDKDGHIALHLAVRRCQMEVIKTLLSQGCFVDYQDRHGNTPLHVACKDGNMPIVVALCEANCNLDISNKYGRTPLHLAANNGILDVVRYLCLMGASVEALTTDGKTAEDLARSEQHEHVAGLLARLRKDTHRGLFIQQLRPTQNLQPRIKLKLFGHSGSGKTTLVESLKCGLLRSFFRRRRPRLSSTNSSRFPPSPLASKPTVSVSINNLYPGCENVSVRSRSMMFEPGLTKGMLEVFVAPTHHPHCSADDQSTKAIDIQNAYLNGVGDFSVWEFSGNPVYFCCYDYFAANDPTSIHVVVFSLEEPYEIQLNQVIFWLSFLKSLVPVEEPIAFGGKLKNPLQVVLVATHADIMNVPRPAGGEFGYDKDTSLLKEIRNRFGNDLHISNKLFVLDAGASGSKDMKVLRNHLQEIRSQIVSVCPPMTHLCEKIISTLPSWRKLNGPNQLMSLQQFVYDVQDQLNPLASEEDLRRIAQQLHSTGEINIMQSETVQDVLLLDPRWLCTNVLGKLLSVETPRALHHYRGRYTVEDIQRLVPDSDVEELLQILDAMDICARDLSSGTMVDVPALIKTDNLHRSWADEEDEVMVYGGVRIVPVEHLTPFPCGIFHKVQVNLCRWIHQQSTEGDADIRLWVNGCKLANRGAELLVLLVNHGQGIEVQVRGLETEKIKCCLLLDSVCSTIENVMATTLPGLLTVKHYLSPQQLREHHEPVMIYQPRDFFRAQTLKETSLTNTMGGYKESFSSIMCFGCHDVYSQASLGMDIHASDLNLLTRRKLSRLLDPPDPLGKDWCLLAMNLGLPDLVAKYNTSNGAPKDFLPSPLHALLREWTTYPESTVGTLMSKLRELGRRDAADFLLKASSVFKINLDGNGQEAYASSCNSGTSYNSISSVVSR

[26] = target: 5-hydroxytryptamine receptor 2A (Homo sapiens) (UniProt P28223); conditions: Compound concentration 10.0 uM

CNC(=O)Nc1ccc2c(c1)CC[C@@]21OC(=O)N(CC(=O)N(Cc2ccc(F)cc2)[C@@H](C)C(F)(F)F)C1=O [A-485]
inactive: residual activity [1] 97% | inhibition [2] 14% | inhibition [3] 18% | residual activity [4] 90% | residual activity [5] 94% | residual activity [6] 94% | residual activity [7] 84% | inhibition [8] -1.58% | residual activity [9] 100% | residual activity [10] 82% | residual activity [11] 77% | inhibition [12] 21% | residual activity [13] 77% | residual activity [14] 98% | residual activity [15] 68% | residual activity [16] 67% | residual activity [17] 86% | residual activity [18] 90% | residual activity [19] 84% | residual activity [20] 100% | inhibition [21] -4% | residual activity [22] 100% | residual activity [23] 88% | inhibition [24] 47% | residual activity [25] 96% | inhibition [26] 34.6%

CNC(=O)Nc1ccc2c(c1)[C@@]1(CC2)OC(=O)N(CC(=O)N(Cc2ccc(F)cc2)[C@@H](C)C(F)(F)F)C1=O [A-486]
inactive: residual activity [1] 100% | inhibition [2] 6% | inhibition [3] 17% | residual activity [4] 78% | residual activity [5] 100% | residual activity [6] 97% | residual activity [7] 87% | inhibition [8] 9.73% | residual activity [9] 100% | residual activity [10] 77% | residual activity [11] 81% | inhibition [12] 12% | residual activity [13] 78% | residual activity [14] 100% | residual activity [15] 100% | residual activity [16] 85% | residual activity [17] 96% | residual activity [18] 83% | residual activity [19] 99% | residual activity [20] 100% | inhibition [21] 4% | residual activity [22] 100% | residual activity [23] 90% | inhibition [24] 41% | residual activity [25] 100% | inhibition [26] 26.6%
